Laboratory results from the NIST ThermoML archive (doi:10.1016/j.jct.2004.04.013).
Numbers after ± are expanded uncertainties.

Conditions: Liquid, Pulse-echo method

For ClC(Cl)(Cl)Cl [tetrachloromethane], the speed of sound (283.15 K, 101 kPa) was 969.1 ± 2 m/s, the speed of sound (283.15 K, 497 kPa) was 970.5 ± 2 m/s and the speed of sound (283.15 K, 1065 kPa) was 972.7 ± 2 m/s. For the same compound, the speed of sound (283.15 K, 2192 kPa) was 976.9 ± 2 m/s, the speed of sound (283.15 K, 2306 kPa) was 977.4 ± 2 m/s and the speed of sound (283.15 K, 3433 kPa) was 981.6 ± 2 m/s. The speed of sound (283.15 K, 5102 kPa) was 987.7 ± 2 m/s, the speed of sound (283.15 K, 5958 kPa) was 990.8 ± 2 m/s and the speed of sound (283.15 K, 7972 kPa) was 998 ± 2.1 m/s. For the same compound, the speed of sound (283.15 K, 8771 kPa) was 1000.6 ± 2.1 m/s, the speed of sound (283.15 K, 9833 kPa) was 1004.6 ± 2.1 m/s and the speed of sound (283.15 K, 11260 kPa) was 1009.5 ± 2.1 m/s. For the same compound, the speed of sound (283.15 K, 12970 kPa) was 1015.5 ± 2.1 m/s, the speed of sound (283.15 K, 13650 kPa) was 1017.6 ± 2.1 m/s and the speed of sound (283.15 K, 16043 kPa) was 1026 ± 2.1 m/s. For the same compound, the speed of sound (283.15 K, 19058 kPa) was 1035.9 ± 2.1 m/s, the speed of sound (283.15 K, 22343 kPa) was 1046.6 ± 2.2 m/s and the speed of sound (283.15 K, 25816 kPa) was 1057.5 ± 2.2 m/s. It also gave a speed of sound (283.15 K, 30453 kPa) of 1071.7 ± 2.2 m/s, a speed of sound (298.15 K, 101 kPa) of 921.1 ± 1.9 m/s and a speed of sound (298.15 K, 583 kPa) of 923.1 ± 1.9 m/s. It also gave a speed of sound (298.15 K, 865 kPa) of 924.2 ± 1.9 m/s, a speed of sound (298.15 K, 887 kPa) of 924.4 ± 1.9 m/s and a speed of sound (298.15 K, 1384 kPa) of 926.4 ± 1.9 m/s. It also gave a speed of sound (298.15 K, 1731 kPa) of 927.8 ± 1.9 m/s, a speed of sound (298.15 K, 1900 kPa) of 928.4 ± 1.9 m/s and a speed of sound (298.15 K, 2056 kPa) of 929.1 ± 1.9 m/s. It also gave a speed of sound (298.15 K, 2905 kPa) of 932.5 ± 1.9 m/s, a speed of sound (298.15 K, 3020 kPa) of 933 ± 1.9 m/s and a speed of sound (298.15 K, 3919 kPa) of 936.6 ± 1.9 m/s. The speed of sound (298.15 K, 4367 kPa) was 938.4 ± 1.9 m/s, the speed of sound (298.15 K, 4908 kPa) was 940.5 ± 1.9 m/s and the speed of sound (298.15 K, 5436 kPa) was 942.6 ± 1.9 m/s. For the same compound, the speed of sound (298.15 K, 5946 kPa) was 944.5 ± 2 m/s, the speed of sound (298.15 K, 6868 kPa) was 948 ± 2 m/s and the speed of sound (298.15 K, 7358 kPa) was 949.9 ± 2 m/s. The speed of sound (298.15 K, 7761 kPa) was 951.5 ± 2 m/s, the speed of sound (298.15 K, 8818 kPa) was 955.5 ± 2 m/s and the speed of sound (298.15 K, 8930 kPa) was 955.9 ± 2 m/s. It also gave a speed of sound (298.15 K, 9903 kPa) of 959.6 ± 2 m/s, a speed of sound (298.15 K, 10321 kPa) of 961.2 ± 2 m/s and a speed of sound (298.15 K, 11239 kPa) of 964.6 ± 2 m/s. For the same compound, the speed of sound (298.15 K, 12541 kPa) was 969.3 ± 2 m/s, the speed of sound (298.15 K, 13397 kPa) was 972.5 ± 2 m/s and the speed of sound (298.15 K, 14945 kPa) was 978 ± 2 m/s. It also gave a speed of sound (298.15 K, 15313 kPa) of 979.4 ± 2 m/s, a speed of sound (298.15 K, 17404 kPa) of 986.8 ± 2 m/s and a speed of sound (298.15 K, 17674 kPa) of 987.8 ± 2 m/s. The speed of sound (298.15 K, 20253 kPa) was 996.7 ± 2.1 m/s, the speed of sound (298.15 K, 20404 kPa) was 997.2 ± 2.1 m/s and the speed of sound (298.15 K, 22533 kPa) was 1004.5 ± 2.1 m/s. It also gave a speed of sound (298.15 K, 24855 kPa) of 1012.3 ± 2.1 m/s, a speed of sound (298.15 K, 24984 kPa) of 1012.8 ± 2.1 m/s and a speed of sound (298.15 K, 25186 kPa) of 1013.4 ± 2.1 m/s. It also gave a speed of sound (298.15 K, 27693 kPa) of 1021.7 ± 2.1 m/s, a speed of sound (298.15 K, 29953 kPa) of 1029 ± 2.1 m/s and a speed of sound (298.15 K, 30569 kPa) of 1030.8 ± 2.1 m/s. For the same compound, the speed of sound (313.15 K, 101 kPa) was 874.2 ± 1.8 m/s, the speed of sound (313.15 K, 108 kPa) was 874.2 ± 1.8 m/s and the speed of sound (313.15 K, 478 kPa) was 875.9 ± 1.8 m/s. For the same compound, the speed of sound (313.15 K, 894 kPa) was 877.7 ± 1.8 m/s, the speed of sound (313.15 K, 1827 kPa) was 881.9 ± 1.8 m/s and the speed of sound (313.15 K, 2938 kPa) was 886.7 ± 1.8 m/s. It also gave a speed of sound (313.15 K, 4119 kPa) of 891.6 ± 1.8 m/s, a speed of sound (313.15 K, 5135 kPa) of 896.1 ± 1.9 m/s and a speed of sound (313.15 K, 5591 kPa) of 898 ± 1.9 m/s. It also gave a speed of sound (313.15 K, 6975 kPa) of 903.6 ± 1.9 m/s, a speed of sound (313.15 K, 8334 kPa) of 909.4 ± 1.9 m/s and a speed of sound (313.15 K, 10049 kPa) of 916.2 ± 1.9 m/s. For the same compound, the speed of sound (313.15 K, 12992 kPa) was 927.9 ± 1.9 m/s, the speed of sound (313.15 K, 14421 kPa) was 933.4 ± 1.9 m/s and the speed of sound (313.15 K, 16421 kPa) was 941.1 ± 1.9 m/s. The speed of sound (313.15 K, 18812 kPa) was 949.9 ± 2 m/s, the speed of sound (313.15 K, 20514 kPa) was 956.3 ± 2 m/s and the speed of sound (313.15 K, 25209 kPa) was 972.9 ± 2 m/s. The speed of sound (313.15 K, 31645 kPa) was 994.8 ± 2.1 m/s, the speed of sound (333.15 K, 101 kPa) was 813 ± 1.7 m/s and the speed of sound (333.15 K, 967 kPa) was 817.4 ± 1.7 m/s. For the same compound, the speed of sound (333.15 K, 1691 kPa) was 820.9 ± 1.7 m/s, the speed of sound (333.15 K, 2195 kPa) was 823.4 ± 1.7 m/s and the speed of sound (333.15 K, 3177 kPa) was 828.1 ± 1.7 m/s. The speed of sound (333.15 K, 5118 kPa) was 837.4 ± 1.7 m/s, the speed of sound (333.15 K, 5595 kPa) was 839.5 ± 1.7 m/s and the speed of sound (333.15 K, 7312 kPa) was 847.3 ± 1.8 m/s. For the same compound, the speed of sound (333.15 K, 8236 kPa) was 851.5 ± 1.8 m/s, the speed of sound (333.15 K, 9201 kPa) was 855.8 ± 1.8 m/s and the speed of sound (333.15 K, 10593 kPa) was 862 ± 1.8 m/s. It also gave a speed of sound (333.15 K, 11851 kPa) of 867.4 ± 1.8 m/s, a speed of sound (333.15 K, 13131 kPa) of 872.9 ± 1.8 m/s and a speed of sound (333.15 K, 14740 kPa) of 879.6 ± 1.8 m/s. For the same compound, the speed of sound (333.15 K, 15989 kPa) was 884.8 ± 1.8 m/s, the speed of sound (333.15 K, 17758 kPa) was 892.1 ± 1.8 m/s and the speed of sound (333.15 K, 19476 kPa) was 898.9 ± 1.9 m/s. The speed of sound (333.15 K, 20905 kPa) was 904.6 ± 1.9 m/s, the speed of sound (333.15 K, 22422 kPa) was 910.5 ± 1.9 m/s and the speed of sound (333.15 K, 25433 kPa) was 922 ± 1.9 m/s. It also gave a speed of sound (333.15 K, 27880 kPa) of 931.1 ± 1.9 m/s and a speed of sound (333.15 K, 31372 kPa) of 943.7 ± 1.9 m/s.
